Measured values from patent US8461205B2, “Anthranilic acid derivatives” (Chelsea Therapeutics, Inc., priority 2007, dated 2013).

Legend:
DHODH = DHODH (Homo sapiens, UniProt Q02127); assay: DHODH inhibition; type: biochemical
[1] = test system: human T lymphoblast cell line (Jurkat); assay: Inhibition of T-cell proliferation (Jurkat, 3H-TdR incorporation); type: cell-based; details: for IC50: Homo sapiens, Jurkat cells, 3 days culture, 3H-TdR pulse last 4 hours
Method: Inhibition of T cell proliferation was studied in a functional assay. A human T lymphoblast cell line (Jurkat) was cultured in the presence and absence, respectively, of DHODH inhibiting compounds. Jurkat cells were seeded in microtiterplates at a concentration of 5×10^5/mL in RPMI 1640 growth media supplemented with ultraglutamin, 10% fetal calf serum, 1 mM sodium pyruvat, 10 mM HEPES and 0.1 mg/mL gentamycin. A dilution series of ten different concentrations of inhibitor was added to the wells and the plates were kept in a cell incubator for 3 days. At the beginning of the last 4 hours period, the cultures were pulsed with 10 μl/well 0.1 Ci/mmol 3H-TdR and then harvested on filter papers and counted with a ([…]. The IC50 values for each compound were calculated from the obtained dose response curves. Adding uridine to a concentration of about 50 μM in the wells monitored the specificity for the mechanism i.e., the inhibition of cell proliferation is due to DHODH inhibition and not to a general cell toxicity of the compounds. This addition of uridine reverses the anti-proliferative effect by bypassing the DHODH enzyme using an external source of pyrimidine. Results in respect of a number of compounds of the invention are reported as Jurkat IC50 (in μM) in Table 1.
(§1) The inhibition of T cell proliferation was studied in a human T lymphoblast cell line (Jurkat). The IC50 value for each compound was calculated from the dose response curve. Adding uridine was used to monitor the specificity of the DHODH mechanism. The metabolic stability was studied in human liver microsomes. Table 1 exemplifies the invention, without limiting the scope thereof.

[2] = Metabolic stability in human liver microsomes; type: in vitro ADME; details: for half-life at 0.5 μM: human liver microsomes, 0.5 μM compound, 1 mg/mL protein, 1 mM NADPH, pH 7.4, 37° C., "stable" = no degradation could be confirmed
Method: The metabolic stability of the test compounds was determined using human liver microsomes. Incubations were performed with a compound concentration of 0.5 μM and a protein concentration of 1 mg/mL in 50 mM sodium phosphate buffer at physiological pH (7.4) and temperature (37° C.). The incubation mixture was preincubated at 37° C. prior to addition of NADPH (1 mM, final concentration). At several time points during 60 minutes, aliquots were removed and added to a 96 well plate placed on dry ice and deep-frozen. Samples were analyzed with LC-MS for concentration of parent compound. From the slope of the log [parent compound] vs. incubation time regression line, the in vitro half-life […] was determined. The intrinsic clearance (CLint) can be calculated using a modified Michaelis-Menten relationship, i.e., CLint=ln 2/t1/2. The CLint can then be converted to CL by using the well-stirred model of hepatic extraction. A value of 1.24 L/h/kg of the hepatic blood flow in man can be used. Results with respect to a number of compounds of the invention are reported as t1/2 (in minutes) in Table 1.
as §1

cell proliferation = details: effect stated to be unrelated to DHODH inhibition; cited from earlier work

Chain of DHODH (Q02127 whole entry, species assumed): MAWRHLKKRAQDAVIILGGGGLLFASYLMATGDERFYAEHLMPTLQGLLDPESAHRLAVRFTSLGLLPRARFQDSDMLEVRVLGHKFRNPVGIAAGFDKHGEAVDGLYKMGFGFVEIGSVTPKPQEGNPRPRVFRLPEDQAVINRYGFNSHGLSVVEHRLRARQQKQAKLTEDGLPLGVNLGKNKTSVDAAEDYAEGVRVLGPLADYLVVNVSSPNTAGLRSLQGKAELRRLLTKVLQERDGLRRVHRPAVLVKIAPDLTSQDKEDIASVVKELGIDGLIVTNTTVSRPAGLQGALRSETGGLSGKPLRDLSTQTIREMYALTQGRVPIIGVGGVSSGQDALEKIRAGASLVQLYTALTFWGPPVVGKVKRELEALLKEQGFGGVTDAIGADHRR

Row | IC50 [1] [nM] | half-life at 0.5 μM [2] [h] | SMILES | also measured
1 | – | – | COc1ccc(OC)c(COc2ccc(O)c(C(=O)O)c2)c1 [5-(2,5-dimethoxy-benzyloxy)-2-hydroxy-benzoic acid] | activity as DHODH inhibitor (in words) (DHODH): inactive
2 | 490 | 6.8 | CCC(=O)Nc1ccc(COc2ccc(C(F)(F)F)cc2Br)cc1C(=O)O [INV 7, 5-(2-Bromo-4-trifluoromethyl-phenoxymethyl)-2-propionylamino-benzoic acid] | –
3 | 570 | 1.83 | CCC(=O)Nc1ccc(OCc2ccc(Cl)cc2C(F)(F)F)cc1C(=O)O [INV 29, 5-(4-Chloro-2-trifluoromethyl-benzyloxy)-2-propionylamino-benzoic acid] | –
4 | 6200 | – | COc1ccc(OC)c(COc2ccc(NC(C)=O)c(C(=O)O)c2)c1 [REF 8, 2-acetylamino-5-(2,5-dimethoxy-benzyloxy)-benzoic acid, reference compound] | inhibitory effect on T-cell proliferation (in words) ([1]; Jurkat, cf. Table 1): only a weak inhibitory effect; oxidation half-life / stability towards oxidation by human P450 (in words) ([2]; human in vitro system, cf. Table 1): short half-life
5 | 160 | 2.65 | CCC(=O)Nc1ccc(/C=C/c2ccc(F)cc2C(F)(F)F)cc1C(=O)O [INV 12, 5-[(E)-2-(4-Fluoro-2-trifluoromethyl-phenyl)-vinyl]-2-propionylamino-benzoic acid] | –
6 | – | – | COC(=O)c1cc(OCc2cc(OC)ccc2OC)ccc1NC(C)=O [2-acetylamino-5-(2,5-dimethoxy-benzyloxy)-benzoic acid methyl ester] | inhibition of cell proliferation (in words) (cell proliferation): inhibits cell proliferation
7 | 190 | 5.38 | CCC(=O)Nc1ccc(COc2ccc(F)cc2Cl)cc1C(=O)O [INV 5, 5-(2-Chloro-4-fluoro-phenoxymethyl)-2-propionylamino-benzoic acid] | –
